Assay [1] concerns the target T1, human NK2-receptor (Homo sapiens, UniProt P21452).
T1 sequence (P21452 1-398): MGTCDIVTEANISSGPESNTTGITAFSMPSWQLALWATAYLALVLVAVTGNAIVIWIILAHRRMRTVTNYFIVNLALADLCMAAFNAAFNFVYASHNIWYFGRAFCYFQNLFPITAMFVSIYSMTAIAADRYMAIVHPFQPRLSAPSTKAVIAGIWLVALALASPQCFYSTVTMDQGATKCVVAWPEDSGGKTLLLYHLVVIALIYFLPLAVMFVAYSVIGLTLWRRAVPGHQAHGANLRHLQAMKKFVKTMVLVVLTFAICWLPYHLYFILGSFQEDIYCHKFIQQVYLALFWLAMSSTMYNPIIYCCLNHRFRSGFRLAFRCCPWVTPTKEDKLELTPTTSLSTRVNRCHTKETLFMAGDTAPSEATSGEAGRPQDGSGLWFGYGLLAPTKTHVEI
Kind of assay: Functional cellular test, Ca2+ measurements using FLIPR for NK2 activity.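 Also: CHO cells stably expressing the human receptor, loaded with a calcium dye, antagonist inhibition of ligand-evoked intracellular calcium rise read as peak fluorescence change on FLIPR.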

The target of assay [2] is T2, human NK3 receptor (Homo sapiens, UniProt P29371).
T2 sequence (P29371 1-465): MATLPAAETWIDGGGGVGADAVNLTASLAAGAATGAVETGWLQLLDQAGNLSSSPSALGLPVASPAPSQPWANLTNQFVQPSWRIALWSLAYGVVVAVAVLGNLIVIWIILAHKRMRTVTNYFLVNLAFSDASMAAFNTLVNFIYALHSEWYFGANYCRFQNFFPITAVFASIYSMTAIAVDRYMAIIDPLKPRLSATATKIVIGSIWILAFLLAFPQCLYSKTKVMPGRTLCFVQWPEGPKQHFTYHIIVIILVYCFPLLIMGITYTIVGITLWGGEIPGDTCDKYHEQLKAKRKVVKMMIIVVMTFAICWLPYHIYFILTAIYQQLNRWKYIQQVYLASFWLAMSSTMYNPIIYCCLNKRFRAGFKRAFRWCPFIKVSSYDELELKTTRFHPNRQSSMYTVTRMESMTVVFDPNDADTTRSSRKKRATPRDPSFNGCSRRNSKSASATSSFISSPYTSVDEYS
Kind of assay: Binding potency of the test substances to NK3-receptors in vitro ([3H]-SR 142801 displacement). The note with it: human NK3-receptor in CHO cell membranes, [3H]-SR 142801 (osanetant), average of at least three measurements; for Ki: read-out: pKi, binding potency to NK3-receptors (converted). Set-up: expressed in transfected cells; host or cells: CHO cells (membrane preparation). The source says:
3. Determination of the Binding Potency of the Test Substances to NK3-Receptors in Vitro
The affinity of test compounds for NK3-receptors can be determined by measuring the ability of the test compound to displace a radiolabeled ligand from its specific binding site.
(§1) The radiolabel used in this assay is [^3H]-SR 142801 (osanetant). Receptors were obtained from membrane preparations of CHO-cells (Chinese Hamster Ovary cells), in which the human NK3-receptor was stably expressed. Membranes were incubated with [^3H]-osanetant in the absence or presence of test compounds at different concentrations, diluted in a buffer system. Separation of bound radioactivity from free radioactivity was done by filtration through glass fiber filters (Packard GF/B) with several washings with ice-cold buffer solution. Bound radioactivity was measured with a liquid scintillation counter (total binding). Unspecific binding was determined by incubation with an excess (1 μmol/l) of unlabeled osanetant. Specific binding is obtained by subtracting the unspecific binding from the total binding.
Radioactivity of the specific binding was plotted against the concentration of the test compound and IC50 values, i.e. the concentration of test compound by which 50% of the radioligand is displaced, were calculated. The inhibition constant (Ki) was calculated according to the Cheng-Prusoff equation, and listed as its negative logarithmic value (pKi) The pKi value describes the potency of a test compound to bind to a receptor.
(§2) The average result of all measurements is listed above.

The target of assay [3] is T2, human NK3 receptor. Kind of assay: Functional cellular test, Ca2+ measurements using aequorin for NK3 activity. The arrangement: expressed in transfected cells; host or cells: cell line co-expressing mitochondrially targeted apoaequorin (CHO according to b76/b77). The conditions noted are these: for Kb: read-out: pA2 data for NK3 (converted). The class given is cell-based.

Assay [4] concerns the target T1, human NK2-receptor. Nature of the assay: Binding potency of the test substances to NK2-receptors in vitro ([3H]-SR 48968 displacement). The note with it: human NK2-receptor in CHO cell membranes, [3H]-SR 48968 (saredutant), average of at least three measurements; for Ki: read-out: pKi, binding potency to NK2-receptors (converted). The arrangement: expressed in transfected cells; host or cells: CHO cells (membrane preparation).
From the text: 2. Determination of the Binding Potency of the Test Substances to NK2-Receptors in Vitro
The affinity of test compounds for NK2-receptors can be determined by measuring the ability of the test compound to displace a radiolabeled ligand from its specific binding site.
as §1, with “48968 (saredutant).” for “142801 (osanetant).”, “NK2-receptor” for “NK3-receptor”, “[^3H]-saredutant” for “[^3H]-osanetant”, “(0.1” for “(1”, “saredutant.” for “osanetant.”
Radioactivity of the specific binding was plotted against the concentration of the test compound and IC50 values, i.e. the concentration of test compound by which 50% of the radioligand is displaced, were calculated. The inhibition constant (Ki) was calculated according to the Cheng-Prusoff equation, and listed as its negative logarithmic value (pKi). The pKi value describes the potency of a test compound to bind to a receptor.
as §2

Assay [5] has as its target T3, human NK1-receptor (Homo sapiens, UniProt P25103). Kind of assay: Binding potency of the test substances to NK1-receptors in vitro ([3H]-Substance P displacement). The note with it: human NK1-receptor in CHO cell membranes, average of at least three measurements. As to the method:
1. Determination of the Binding Potency of the Test Substances to NK1-Receptors in Vitro
The affinity of test compounds for NK1-receptors can be determined by measuring the ability of the test compound to displace a radiolabeled ligand from its specific binding site. The tests were performed at Solvay Pharmaceuticals, Weesp, The Netherlands.
Separation of bound radioactivity from free radioactivity was done by filtration through glass fiber filters (Packard GF/B) with several washings with ice-cold buffer solution. Bound radioactivity was measured with a liquid scintillation counter (total binding).
The inhibition constant (Ki) was calculated according to the Cheng-Prusoff equation, and listed as its negative logarithmic value (pKi). The pKi value describes the potency of a test compound to bind to a receptor.

The target of assay [6] is T3, human NK1-receptor. Kind of assay: Functional cellular test, Ca2+ measurements using FLIPR for NK1 activity. It counts as cell-based. Set-up: expressed in transfected cells; host or cells: CHO fibroblast cells. The conditions noted are these: read-out: pA2 data for NK1 (converted). The source says: The NK receptor is coupled to Gq.
All steps were done under sterile conditions.

Setting [7] is: read-out: pKi, binding potency to NK1-receptors (converted).

Like-named read-outs stand apart in the source and are kept apart here.

T3 sequence (P25103 whole entry): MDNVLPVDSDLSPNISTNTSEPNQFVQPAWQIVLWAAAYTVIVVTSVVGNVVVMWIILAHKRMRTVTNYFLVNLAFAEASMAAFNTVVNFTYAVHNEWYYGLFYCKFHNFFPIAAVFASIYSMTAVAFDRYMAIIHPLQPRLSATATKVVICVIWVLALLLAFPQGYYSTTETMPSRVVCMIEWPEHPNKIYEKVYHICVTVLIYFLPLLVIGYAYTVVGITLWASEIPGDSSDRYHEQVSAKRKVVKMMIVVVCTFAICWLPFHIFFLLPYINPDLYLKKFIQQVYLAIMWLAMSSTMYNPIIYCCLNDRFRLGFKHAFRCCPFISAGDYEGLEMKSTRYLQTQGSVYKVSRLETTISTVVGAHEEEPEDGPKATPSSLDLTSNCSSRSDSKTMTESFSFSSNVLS

As to `CN(C)C(=O)C1(N2CCCCC2)CCN(CC[C@H](CN(C)C(=O)c2ccccc2O)c2ccc(Cl)c(Cl)c2)CC1` [compound 12], in assay [1] (CHO cells, human NK2, FLIPR Ca2+, agonist NKA 10^-7 M), the “pA2 data for NK2” value was 8.3. The “pKi, binding potency to NK3-receptors” value in assay [2] came out at 7.9. In addition, the “pA2 data for NK3” value in assay [3] (cell line with human NK3 receptor and apoaequorin, agonist senktide 5x10-8 M) stood at 7.9. Moreover, the “pKi, binding potency to NK2-receptors” value in assay [4] amounted to 8.7.
In the case of `CNc1ccccc1C(=O)N(C)CC(CCN1CCC(C(=O)N(C)C)(N2CCCCC2)CC1)c1ccc(Cl)c(Cl)c1` (stereo not shown) [compound 24], the Ki in assay [5] (setting [7]) was 79.4 nM; in assay [4] it was 5.01 nM.
For the compound `CN(C)C(=O)C1(N2CCCCC2)CCN(CCC(CN(C)C(=O)c2ccoc2)c2ccc(Cl)c(Cl)c2)CC1` (stereo not shown) [compound 36], the Kb in assay [1] was 0.501 nM; in assay [3], 63.1 nM. Besides, the Ki was 5.01 nM in assay [2] and 1.58 nM in assay [4].
`CN(C)C(=O)C1(N2CCCCC2)CCN(CCC(CN(C)C(=O)c2cccs2)c2ccc(Cl)c(Cl)c2)CC1` (stereo not shown) [compound 37]: the Kb is 1.58 nM in assay [1] and 31.6 nM in assay [3]. Moreover, the Ki was 20 nM in assay [2] and 1.58 nM in assay [4].
On to `CN(C)C(=O)C1(N2CCCCC2)CCN(CCC(CN(C)C(=O)c2ccccn2)c2ccc(Cl)c(Cl)c2)CC1` (stereo not shown) [compound 43], for which the Kb is 0.631 nM in assay [1] and 31.6 nM in assay [3]. The Ki in assay [2] is 5.01 nM; in assay [4] it was 0.251 nM.
With `CN(C)C(=O)C1(N2CCCCC2)CCN(CCC(CN(C)C(=O)Cc2ccncc2)c2ccc(Cl)c(Cl)c2)CC1` (stereo not shown) [compound 51], the Kb in assay [1] was 39.8 nM; in assay [3] it was 31.6 nM. Moreover, the Ki in assay [2] is 6.31 nM; in assay [4], 79.4 nM.
The matching figures for `CN(C)C(=O)C1(N2CCCCC2)CCN(CCC(CN(C)C(=O)c2ccc(OC(F)(F)F)cc2)c2ccc(Cl)c(Cl)c2)CC1` (stereo not shown) [compound 55]: 2 nM, 7.94 nM, 3.98 nM and 6.31 nM.
Consider `CN(C)C(=O)C1(N2CCCCC2)CCN(CCC(CN(C)C(=O)Cc2ccc(C(F)(F)F)c(C(F)(F)F)c2)c2ccc(Cl)c(Cl)c2)CC1` (stereo not shown) [compound 56], for which the Ki in assay [2] is 5.01 nM; in assay [5] (setting [7]), 63.1 nM; in assay [4] it was 25.1 nM.
With `Cc1c(C(=O)N(C)CC(CCN2CCC(C(=O)N(C)C)(N3CCCCC3)CC2)c2ccc(Cl)c(Cl)c2)nnn1Cc1ccccc1` (stereo not shown) [compound 67], the Kb in assay [1] is 25.1 nM; in assay [3] it was 15.8 nM. The Ki is 5.01 nM in assay [2] and 6.31 nM in assay [4].
For `CN(C)C(=O)C1(N2CCCCC2)CCN(CCC(CN(C)C(=O)c2cc(C(F)(F)F)cc(C(F)(F)F)c2)c2ccc(Cl)c(Cl)c2)CC1` (stereo not shown) [compound 70], the results for the Ki in assay [2], in assay [5] (setting [7]) and in assay [4] were 63.1 nM, 63.1 nM and 25.1 nM, respectively.
`CN(C)C(=O)C1(N2CCCCC2)CCN(CCC(CN(C)C(=O)c2cccc(Cl)c2)c2ccc(Cl)c(Cl)c2)CC1` (stereo not shown) [compound 80]: the figures for the Ki in assay [2], in assay [5] (setting [7]) and in assay [4] were 79.4 nM, 79.4 nM and 2 nM, respectively.
In the case of `COc1cccc(C(=O)N(C)CC(CCN2CCC(C(=O)N(C)C)(N3CCCCC3)CC2)c2ccc(Cl)c(Cl)c2)c1` (stereo not shown) [compound 82], the Ki in assay [2] was 25.1 nM; in assay [5] (setting [7]), 79.4 nM; in assay [4], 2.51 nM.
In assay [1], `CN(C)C(=O)C1(N2CCCCC2)CCN(CCC(CN(C)C(=O)c2cccc(C(F)(F)F)c2)c2ccc(Cl)c(Cl)c2)CC1` (stereo not shown) [compound 83] had a Kb of 15.8 nM. The Ki in assay [2] was 3.16 nM; in assay [5] (pKi, binding potency to NK1-receptors), 79.4 nM; in assay [4] it was 5.01 nM.
`CN(C)C(=O)C1(N2CCN(CC[C@H](CN(C)C(=O)c3ccccc3)c3ccc(Cl)c(Cl)c3)CC2)CCCCC1` [compound 96, N-[(2S)-2-(3,4-dichlorophenyl)-4-(4-{1-[(dimethylamino)-carbonyl]cyclohexyl}piperazin-1-yl)butyl]-N-methylbenzamide]: the values for the Kb in assay [1] and in assay [6] were 1.26 nM and 31.6 nM, respectively. Moreover, the Ki in assay [4] is 2 nM.
With `CN(C)C(=O)C1CCCCN1C1CCN(CCC(CN(C)C(=O)c2ccccc2)c2ccc(Cl)c(Cl)c2)CC1` (stereo not shown) [compound 97], the Kb in assay [1] is 0.251 nM; in assay [3] it was 79.4 nM. Further, the Ki is 79.4 nM in assay [2] and 2 nM in assay [4].
For the compound `CN(CC(CCN1CCC(C(=O)N2CCCCC2)(N2CCCCC2)CC1)c1ccc(Cl)c(Cl)c1)C(=O)c1cc(C#N)cc2ccccc12` (stereo not shown) [compound 125], the results for the Ki in assay [2], in assay [5] (setting [7]) and in assay [4] were 50.1 nM, 12.6 nM and 50.1 nM, respectively.
Regarding `CN(CC(CCN1CCC(C(=O)N2CCCC2)(N2CCCCC2)CC1)c1ccc(Cl)c(Cl)c1)C(=O)c1cc(C#N)cc2ccccc12` (stereo not shown) [compound 126], the Ki in assay [2] is 39.8 nM; in assay [5] (setting [7]), 6.31 nM; in assay [4], 10 nM.
Turning to `CN(C)C(=O)C1(N(C)C)CCN(CCC(CN(C)C(=O)c2ccccc2)c2ccc(Cl)c(Cl)c2)CC1` (stereo not shown) [compound 127], the figures for the Ki in assay [5] (setting [7]) and in assay [4] were 79.4 nM and 2 nM, respectively.

These data come from patent US20070219214A1, “Dual NK2/NK3-antagonists, pharmaceutical compositions comprising them, and processes for their preparation” (Solvay pharmaceuticals GmbH, priority 2006, published 2007).
